Reference: patent publication US9393271B2, “GHRH agonists for islet cell transplantation and function and the treatment of diabetes” (UNIVERSITY OF MIAMI, priority 2012, dated 2016)
Where two headings read alike, the source gives them in different places. Each block holds one molecule with its values, some of them ahead of it. Non-standard residues stand in square brackets, D forms with d. Residues, ends and D or L forms follow the SMILES beside them. *: point of attachment. Desaminotyrosyl = O=C(CCc1ccc(O)cc1)*; Agmatine = N=C(N)NCCCCN*; Nle = CCCC[C@H](N)C(=O)O; Orn = NCCC[C@H](N)C(=O)O; Abu = CC[C@H](N)C(=O)O

Columns and labels:
[1] = target: T1, GHRH receptor (human pituitary membrane homogenates) (Homo sapiens, UniProt Q02643); assay: GHRH receptor binding, ligand competition with 125I-labeled JV-1-42 (Table 7); set-up: Normal human pituitaries were purchased from the National Hormone and Peptide Program; tissue National Hormone and Peptide Program (A. F. Parlow, Harbor-UCLA Medical Center, Torrance, Calif.); host or cells: normal human pituitary, membrane fraction / homogenate; conditions: JI-38 = 1
T1 sequence (Q02643 23-423): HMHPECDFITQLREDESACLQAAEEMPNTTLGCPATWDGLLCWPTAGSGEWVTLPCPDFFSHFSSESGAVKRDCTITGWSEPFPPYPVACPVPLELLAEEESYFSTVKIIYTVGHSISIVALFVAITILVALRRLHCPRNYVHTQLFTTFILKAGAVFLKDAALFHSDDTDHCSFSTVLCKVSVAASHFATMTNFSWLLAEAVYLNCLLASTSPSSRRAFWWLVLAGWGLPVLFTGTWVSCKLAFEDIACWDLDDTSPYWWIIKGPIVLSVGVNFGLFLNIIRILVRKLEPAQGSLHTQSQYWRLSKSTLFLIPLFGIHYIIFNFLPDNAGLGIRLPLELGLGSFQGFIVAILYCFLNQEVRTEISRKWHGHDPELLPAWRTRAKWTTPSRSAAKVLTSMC

rat pituitary cells = assay: GH release in superfused rat pituitary cell system; format: cell-based; conditions: 1 nM, 3-min pulse; for GH Response (ng/ml) Average: average of runs; for GH Response (ng/ml) 1: run 1; for GH Response (ng/ml) 2: run 2
Experimental: Growth hormone releasing activity. Growth hormone releasing was assayed by using a superfused rat pituitary cell system as described in S. Vigh and A. V. Schally, Peptides 5, Suppl: 241-347, 1984. The new synthetic peptide analog of hGHRH P20356 and JI-38 (as control) were administered for 3 minutes (1 mL perfusate) at 1 nM concentration as shown below. Fractions of 1 ml are collected and the GH content in each was determined by ELISA.
Pituitary cells from 2 male rats were used for each channel of the superfusion system. The cells were exposed to 3-min pulses of the new GHRH agonists or to JI-38 as standard every 30 min. Outflowing samples of each channel (1 ml) were collected every 3 min, and GH levels were determined by ELISA.

[2] = target: T1, GHRH receptor (human pituitary membrane homogenates); assay: GHRH receptor binding, ligand competition with 125I-labeled JV-1-42 (Table 5)
[3] = target: T1, GHRH receptor (human pituitary membrane homogenates); assay: GHRH receptor binding, ligand competition with 125I-labeled [His1,Nle27]hGHRH(1-32)NH2 (Table 6)
[4] = target: T2, GHRH receptor in human pituitary membrane homogenates (human, UniProt Q02643); assay: ligand competition, 125I-JV-1-42 displaced, human pituitary membranes
T2 sequence: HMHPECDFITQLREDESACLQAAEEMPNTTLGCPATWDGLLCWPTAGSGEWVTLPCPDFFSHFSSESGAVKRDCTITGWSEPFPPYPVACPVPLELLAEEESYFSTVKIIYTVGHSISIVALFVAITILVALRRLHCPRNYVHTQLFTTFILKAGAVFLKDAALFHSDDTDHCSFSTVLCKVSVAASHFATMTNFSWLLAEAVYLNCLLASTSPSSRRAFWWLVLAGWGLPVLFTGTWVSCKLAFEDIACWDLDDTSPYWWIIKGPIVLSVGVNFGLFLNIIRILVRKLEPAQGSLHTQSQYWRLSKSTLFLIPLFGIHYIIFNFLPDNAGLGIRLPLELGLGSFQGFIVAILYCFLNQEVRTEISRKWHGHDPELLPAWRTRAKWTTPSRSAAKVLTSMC

[5] = target: T2, GHRH receptor in human pituitary …; assay: as above; remark: listed apart in the source
[6] = fraction 1 (P-20356) / 21 (JI-38)
[7] = fraction 2 (P-20356) / 22 (JI-38)
[8] = fraction 3 (P-20356) / 23 (JI-38)
[9] = fraction 4 (P-20356) / 24 (JI-38)
[10] = fraction 5 (P-20356) / 25 (JI-38)

Molecule: CCCC[C@H](NC(=O)[C@@H](NC(=O)[C@H](CC(=O)O)NC(=O)[C@H](CCC(N)=O)NC(=O)[C@H](CC(C)C)NC(=O)[C@H](CC(C)C)NC(=O)[C@H](CCCN)NC(=O)[C@H](CCCNC(=N)N)NC(=O)[C@H](C)NC(=O)[C@H](CO)NC(=O)[C@H](CC(C)C)NC(=O)[C@H](CCC(N)=O)NC(=O)[C@H](CC)NC(=O)[C@H](CC(C)C)NC(=O)[C@@H](NC(=O)[C@H](CCCN)NC(=O)[C@H](CCCNC(=N)N)NC(=O)[C@H](Cc1ccc(O)cc1)NC(=O)[C@H](CO)NC(=O)[C@H](CCC(N)=O)NC(=O)[C@@H](NC(=O)[C@H](Cc1ccccc1)NC(=O)[C@@H](NC(=O)[C@H](C)NC(=O)[C@H](CC(=O)O)NC(=O)[C@H](C)NC(=O)CCc1ccc(O)cc1)[C@@H](C)CC)[C@@H](C)O)C(C)C)[C@@H](C)CC)C(=O)N[C@@H](CC(=O)O)C(=O)NCCCCNC(=N)N [JI-38, reference compound] (Desaminotyrosyl-ADAIFTQSYR[Orn]VL[Abu]QLSAR[Orn]LLQDI[Nle]D-Agmatine)
- Relative affinitiy (Binding potency) vs JI-38 [1]: 1
- GH Response (ng/ml) Average (rat pituitary cells; [6]): 49.27 ng/mL
- GH Response (ng/ml) Average (rat pituitary cells; [7]): 131.71 ng/mL
- GH Response (ng/ml) Average (rat pituitary cells; [8]): 194.68 ng/mL
- GH Response (ng/ml) Average (rat pituitary cells; [9]): 137.45 ng/mL
- GH Response (ng/ml) Average (rat pituitary cells; [10]): 96.70 ng/mL
- GH Response (ng/ml) 1 (rat pituitary cells; [6]): 42.46 ng/mL
- GH Response (ng/ml) 1 (rat pituitary cells; [7]): 143.58 ng/mL
- GH Response (ng/ml) 1 (rat pituitary cells; [8]): 222.13 ng/mL
- GH Response (ng/ml) 1 (rat pituitary cells; [9]): 142.96 ng/mL
- GH Response (ng/ml) 1 (rat pituitary cells; [10]): 96.34 ng/mL
- GH Response (ng/ml) 2 (rat pituitary cells; [6]): 56.07 ng/mL
- GH Response (ng/ml) 2 (rat pituitary cells; [7]): 119.83 ng/mL
- GH Response (ng/ml) 2 (rat pituitary cells; [8]): 167.23 ng/mL
- GH Response (ng/ml) 2 (rat pituitary cells; [9]): 131.93 ng/mL
- GH Response (ng/ml) 2 (rat pituitary cells; [10]): 97.05 ng/mL
- Relative affinitiy (Binding potency) vs GHRH ([2]; GHRH(1-29) = 1): 2.4
- Relative affinitiy (Binding potency) vs JI-38 ([2]; JI-38 = 1): 1
- Relative affinitiy (Binding potency) vs GHRH ([3]; GHRH(1-29) = 1): 3.03
- Relative affinitiy (Binding potency) vs JI-38 ([3]; JI-38 = 1): 1

- IC50 [4]: 0.04 nM
- relative affinity (binding potency) vs GHRH [4]: 102 GHRH(1-29) = 1
- relative affinity (binding potency) vs JI-38 [4]: 42.7 JI-38 = 1
- IC50 [5]: 0.52 nM
- relative affinity (binding potency) vs JI-38 [5]: 8.37 JI-38 = 1
B1: [Dat1, D-Ala2, Gln8, Orn12, Abu15, Orn21, Nle27, Asp28, Agm29]hGHRH(1-29) (peptide)
peptide: [Desaminotyrosyl][dA]DAIFTQSYR[Orn]VL[Abu]QLSAR[Orn]LLQDI[Nle]D[Agmatine]
SMILES: CCCC[C@H](NC(=O)[C@@H](NC(=O)[C@H](CC(=O)O)NC(=O)[C@H](CCC(N)=O)NC(=O)[C@H](CC(C)C)NC(=O)[C@H](CC(C)C)NC(=O)[C@H](CCCN)NC(=O)[C@H](CCCNC(=N)N)NC(=O)[C@H](C)NC(=O)[C@H](CO)NC(=O)[C@H](CC(C)C)NC(=O)[C@H](CCC(N)=O)NC(=O)[C@H](CC)NC(=O)[C@H](CC(C)C)NC(=O)[C@@H](NC(=O)[C@H](CCCN)NC(=O)[C@H](CCCNC(=N)N)NC(=O)[C@H](Cc1ccc(O)cc1)NC(=O)[C@H](CO)NC(=O)[C@H](CCC(N)=O)NC(=O)[C@@H](NC(=O)[C@H](Cc1ccccc1)NC(=O)[C@@H](NC(=O)[C@H](C)NC(=O)[C@H](CC(=O)O)NC(=O)[C@@H](C)NC(=O)CCc1ccc(O)cc1)[C@@H](C)CC)[C@@H](C)O)C(C)C)[C@@H](C)CC)C(=O)N[C@@H](CC(=O)O)C(=O)NCCCCNC(=N)N
